Where two headings read alike, the source gives them in different places.
How the values were obtained:
A549 CSC = experiment: Cancer stem cells, Cell Titer-Glo 72 hours (Test Example 3); type: cell-based; settings: Homo sapiens
FaDu CSC = experiment: as above; type: cell-based; settings: Homo sapiens, FaDu, 72 h
ACHN = experiment: Bulk cancer cells, Cell Titer-Glo 72 hours (Test Example 2); type: cell-based; settings: Homo sapiens, ACHN, 72 h
Protocol: (§1) Tubes of 3× drug (60 uM in 500 uL complete media) were prepared from 5 mM stock solutions in DMSO. […] To treat cells, 50 uL of drug from the dilution plate was removed and added to the cell plates. […] Cells were harvested 72 hours after drug addition using Cell Titer-Glo (Promega) and luminescence measured on a plate reader.

FaDu = experiment: as above; type: cell-based; settings: Homo sapiens
Protocol: as §1

A549 = experiment: as above; type: cell-based; settings: Homo sapiens
Protocol: as §1

p-RPS6 Ser240/244 = experiment: Kinase inhibition, Western blot in HeLa cells (Test Example 5); type: cell-based; settings: Homo sapiens, 6 hours, DMSO = 100, read-out: p-RPS6 Ser240/244 Relative Intensity (%)
Protocol: (§2) HeLa cells were treated with 5 uM of the indicated compound for 6 hours. Following compound incubation, cells were washed twice with ice-cold PBS and lysed in lysis buffer (50 mM HEPES, pH 7.5, 1% Nonidet P40, 150 mM NaCl, 1 mM EDTA, 1× protease inhibitor cocktail (Promega)). 30 micrograms of soluble protein was separated by SDS-PAGE and transferred to PVDF membranes. Primary antibodies against p-AMPK Thr172, p-RPS6 Ser235/236, p-RPS6 Ser240/244, and Tubulin (Cell Signaling Technology) were used. The antigen-antibody complexes were visualized by enhanced chemiluminescence (BioRad). The results are shown below in Tables 17A-17E.

p-AMPK Thr172 = experiment: as above; type: cell-based; settings: Homo sapiens, 6 hours, DMSO = 100, read-out: p-AMPK Relative Intensity (%)
Protocol: as §2

p-RPS6 Ser235/236 = experiment: as above; type: cell-based; settings: Homo sapiens, 6 hours, DMSO = 100, read-out: p-RPS6 Ser235/236 Relative Intensity (%)
Protocol: as §2

ACHN CSC = experiment: Cancer stem cells, Cell Titer-Glo 72 hours (Test Example 3); type: cell-based; settings: Homo sapiens, ACHN, 72 h
human RIOK2 protein = target: T1, human RIOK2 protein (Homo sapiens, UniProt Q9BVS4); experiment: RIOK2 autophosphorylation ELISA (Test Example 4); type: biochemical
T1 construct: glutathione S-transferase is fused to N-terminal of a full-length human RIOK2 protein; GST (glutathione S-transferase) (N); purchased CarnaBio, Inc; host or cells: baculovirus-Sf21 cell expression system
Protocol: A protein in which glutathione S-transferase is fused to N-terminal of a full-length human RIOK2 protein was used as a recombinant human RIOK2 protein. The protein was prepared using a baculovirus-Sf21 cell expression system from CarnaBio, Inc. A kinase reaction solution was prepared by mixing 25 μg/mL of the recombinant human RIOK2 protein and 100 μM of ATP in 20 μl of kinase reaction buffer (50 mM Tris-HCl, 10 mM MgCl2, 10 mM MnCl2, 1 mM DTT, 0.01% Brij, 1× PhosSTOP (manufactured by Roche Applied Science)), and was incubated at a temperature of 30° C. for 1 hour. After adding 30 μl of 40 mM EDTA solution to this kinase reaction solution, the kinase reaction solution was transferred to a MaxiSorp 96 well plate (manufactured by Nunc). Thereafter, phosphorylated human RIOK2 protein was allowed to adsorb onto the wells by leaving the plate in a refrigerator overnight.
The following day, the supernatant was removed, and the wells were washed three times with ELISA buffer (20 mM Tris-HCl, 150 mM NaCl, 0.2% Tween-20, 0.1% BSA). Thereafter, 100 μl of Blocking-One P (product name; manufactured by Nacalai Tesque, Inc.) was applied to the wells, and a blocking treatment was performed for 1 hour at room temperature. […] After further washing the wells, a secondary antibody, anti-rabbit IgG conjugated with horseradish peroxidase (manufactured by Jackson ImmunoResearch; 1/4000 ELISA buffer-diluted solution), was applied to the wells, and incubation was performed for 30 minutes at room temperature. After washing the wells once again, 50 μl of tetramethyl benzidine (TMB) aqueous solution (manufactured by Nacalai Tesque, Inc.) was applied to the wells, and a coloring reaction was performed for 30 minutes at room temperature. Thereafter, the coloring reaction was stopped by adding 50 μl of 2M H2SO4 to the wells. An absorptiometric level of 450 nm was measured in each well using ARVO SX (manufactured by Wallac).

T1 sequence (Q9BVS4 whole entry, the tested form may be a part): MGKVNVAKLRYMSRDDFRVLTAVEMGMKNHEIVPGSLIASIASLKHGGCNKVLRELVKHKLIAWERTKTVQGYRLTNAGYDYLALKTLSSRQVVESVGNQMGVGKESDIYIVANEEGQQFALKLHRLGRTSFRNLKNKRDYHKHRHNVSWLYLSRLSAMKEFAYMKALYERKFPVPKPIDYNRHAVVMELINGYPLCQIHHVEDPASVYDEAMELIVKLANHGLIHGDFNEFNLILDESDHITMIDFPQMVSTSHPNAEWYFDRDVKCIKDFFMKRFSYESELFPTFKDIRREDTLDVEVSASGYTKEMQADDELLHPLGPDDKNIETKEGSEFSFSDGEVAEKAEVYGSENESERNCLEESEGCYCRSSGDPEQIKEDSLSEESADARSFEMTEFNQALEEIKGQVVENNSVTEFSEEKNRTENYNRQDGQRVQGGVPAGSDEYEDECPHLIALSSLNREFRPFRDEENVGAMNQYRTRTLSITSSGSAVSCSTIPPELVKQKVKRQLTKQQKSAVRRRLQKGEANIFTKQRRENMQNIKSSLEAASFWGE

Row | SMILES | IC50 (A549 CSC) [nM] | IC50 (FaDu CSC) [nM] | IC50 (ACHN) [nM] | IC50 (FaDu) [nM] | IC50 (A549) [nM] | activity at 5 µM (p-RPS6 Ser240/244; 5 uM compound, Western blot) [%] | activity at 5 µM (p-AMPK Thr172; 5 uM compound, Western blot) [%] | activity at 5 µM (p-RPS6 Ser235/236; 5 uM compound, Western blot) [%] | IC50 (ACHN CSC) [nM] | activity at 5 µM (p-RPS6 Ser240/244; 5 uM) [%] | activity at 5 µM (p-AMPK Thr172; 5 uM) [%] | activity at 5 µM (p-RPS6 Ser235/236; 5 uM) [%] | inhibition at 1 µM (human RIOK2 protein; read-out: Inhibitory activity at 1 μM (%)) [%] | inhibition at 10 µM (human RIOK2 protein; read-out: Inhibitory activity at 10 μM (%)) [%]
1 | CCN(CC)CCNC(=O)c1c(C)[nH]c(/C=C2\C(=O)Nc3c2cccc3-c2cncnc2)c1C [Example 282] | 27500 | 6730 | 16400 | 36300 | 21500 | 72 | 60 | 71 | 10900 |  |  |  |  | 
2 | CCN(CC)CCNC(=O)c1c(C)[nH]c(/C=C2\C(=O)Nc3cccc(-c4ccc(-c5ccccc5)cc4)c32)c1C [Example 109] | 4320 | 280 | 1600 | 1110 | 5090 |  |  |  | 330 | 23 | 8 | 2 |  | 
3 | CCN(CC)CCNC(=O)c1c(C)[nH]c(/C=C2\C(=O)Nc3c2cccc3-c2ccc3cc[nH]c3c2)c1C [Example 285] | 3900 | 2060 | 3000 | 2770 | 2910 | 44 | 39 | 29 | 1860 |  |  |  |  | 
4 | Cc1[nH]c(/C=C2\C(=O)Nc3ccc(-c4cnn(-c5ccccn5)c4)cc32)c(C)c1C(=O)NCCN1CCCC1 [Example 33] | 11700 | 1650 | 1640 | 2530 | 2530 |  |  |  | 220 | 92 | 52 | 82 | 53 | 91
5 | CCN(CC)CCNC(=O)c1c(C)[nH]c(/C=C2\C(=O)Nc3ccc(-c4ccc(-c5ccccc5)o4)cc32)c1C [Example 56, (Z)-N-(2-(diethylamino)ethyl)-2,4-dimethyl-5-((2-oxo-5-(5-phenylfuran-2-yl)indolin-3-ylidene)methyl)-1H-pyrrole-3-carboxamide] | 8250 | 1410 | 3660 | 3090 | 4300 |  |  |  | 250 | 64 | 144 | 19 |  | 
6 | Cc1[nH]c(/C=C2\C(=O)Nc3cc(-c4csc(-c5ccccc5)n4)ccc32)c(C)c1C(=O)N1CCN(C)CC1 [Example 8] | 1220 | 1030 | 11600 | 4740 | 26300 |  |  |  | 390 | 73 | 150 | 33 |  | 
7 | Cc1[nH]c(/C=C2\C(=O)Nc3c2cccc3-c2csc(-c3ccccc3)n2)c(C)c1C(=O)N1CCN(C)CC1 [Example 10] | 4190 | 2990 | 15200 | 5410 | 5410 |  |  |  | 500 | 32 | 122 | 2 |  | 
8 | Cc1cc(C)c(/C=C2\C(=O)Nc3cccc(-c4ccncc4)c32)[nH]1 [Example 272] | 30300 | 12200 | 19800 | 19600 | 13100 | 47 | 75 | 50 | 16200 |  |  |  |  | 
9 | CCN(CC)CCNC(=O)c1c(C)[nH]c(/C=C2\C(=O)Nc3c2cccc3-c2ccncc2)c1C [Example 284] | 12600 | 4410 | 6390 | 6740 | 6850 | 65 | 56 | 60 | 4990 |  |  |  |  | 
10 | CCN(CC)CCNC(=O)c1c(C)[nH]c(/C=C2\C(=O)Nc3ccc(-c4cccnc4)cc32)c1C [Example 210] | 3900 | 4310 | 1310 | 2820 | 840 |  |  |  | 1060 | 31 | 8 | 1 |  | 
11 | Cc1cc(C)c(/C=C2\C(=O)Nc3ccc(-c4ccc5cn[nH]c(=O)c5c4)cc32)[nH]1 [Example 240] | 3000 | 2960 | 1120 | 2550 | 1400 |  |  |  | 260 | 24 | 39 | 1 |  | 
12 | CCN(CC)CCNC(=O)c1c(C)[nH]c(/C=C2\C(=O)Nc3ccc(-c4ccc(-c5ccccc5)cn4)cc32)c1C [Example 197] | 3790 | 4810 | 5380 | 2720 | 2020 |  |  |  | 650 | 82 | 118 | 61 |  | 
13 | Cc1cc(C)c(/C=C2\C(=O)Nc3ccc(-c4csc(C5CCCNC5)n4)cc32)[nH]1 (centres unmarked) [Example 140] | 1700 | 480 | 1640 | 1580 | 1340 |  |  |  | 50 | 34 | 69 | 6 |  | 

— US20190241569A1, “3-(ARYL OR HETEROARYL) METHYLENEINDOLIN-2-ONE DERIVATIVES AS INHIBITORS OF CANCER STEM CELL PATHWAY KINASES FOR THE TREATMENT OF CANCER” (Boston Biomedical, Inc., priority 2013, published 2019)
